Test results reported in paper PMC11397024, “Strategic Fluorination to Achieve a Potent, Selective, Metabolically Stable, and Orally Bioavailable Inhibitor of CSNK2” (Molecules, 2024).

How the values were obtained:
[1] = Liver microsomal stability, human; assay type: in vitro ADME; conditions: pH 7.4, human liver microsomes, five time points over 1 h, read-out: HLM CLint
192 human kinases = assay: NanoBRET K192 panel, whole panel; assay type: cell-based; conditions: six off-target kinases, dose-response experiments
Experimental: The K192 selectivity assay was run according to the Draft Promega technical manual, NanoBRET^TM Target Engagement K192 Kinase Selectivity System. Reagents were supplied by Promega (Promega NP 4101). For the assay, DNA from the prepared kinase vector panel plates A and B were mixed with Fugene in 96-well plates (Corning 3917) and incubated at room temperature for 30 min. The NanoLuc® Low control vector pNL1.1.CMV [Nluc/CMV] Vector (Cat.# N1091) and the transfection control vector NanoLuc®-HIPK2 Fusion Vector (Cat.# NV3221) were used as controls.
HEK293 cells were grown to 75–95% confluency in DMEM (Gibco 11995-065) supplemented with FBS (Avantor 97068-085) at 37 °C in 5% RH. […]
On day two of the assay, 5 μL of 20X K10 tracer was prepared and added at concentrations recommended by Promega. […] After 2–3 min, the plate was shaken at 300 RPM for 10 s, and the donor emission wavelength (450 nm) and acceptor emission wavelength (610 nm) were measured using the Glomax® Discover System.
As a quality check, the donor signal-to-background ratio was calculated for each individual kinase by dividing the mean donor signal for each kinase by the mean donor signal for the signal-to-background control wells. Fractional occupancy of the test drug for each kinase was determined using the following formula:Occupancy (%) = [1 − (Sample − Bottom)/(Top − Bottom)] × 100 where

CLK2 = biological target: T1, CLK2 (Homo sapiens, UniProt P49760); assay: NanoBRET dose-response CLK2; assay type: cell-based; conditions: highest concentration tested 30 μM
T1 construct: expressed in transfected cells; host or cells: HEK293
T1 sequence (P49760 whole entry): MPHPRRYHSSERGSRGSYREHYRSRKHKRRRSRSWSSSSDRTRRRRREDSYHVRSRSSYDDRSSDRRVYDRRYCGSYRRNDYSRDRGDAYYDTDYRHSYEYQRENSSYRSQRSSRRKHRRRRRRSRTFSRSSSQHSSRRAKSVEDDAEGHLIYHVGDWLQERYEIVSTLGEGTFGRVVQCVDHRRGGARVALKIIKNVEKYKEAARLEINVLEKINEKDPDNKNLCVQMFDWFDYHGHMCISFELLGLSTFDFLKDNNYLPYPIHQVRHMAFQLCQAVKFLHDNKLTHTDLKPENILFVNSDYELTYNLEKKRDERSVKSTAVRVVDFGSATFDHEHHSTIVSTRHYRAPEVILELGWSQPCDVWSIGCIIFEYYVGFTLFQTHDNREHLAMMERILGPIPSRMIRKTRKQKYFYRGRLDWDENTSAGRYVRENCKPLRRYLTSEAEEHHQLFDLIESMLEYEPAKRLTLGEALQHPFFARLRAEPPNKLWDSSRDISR

[2] = Liver microsomal stability, mouse; assay type: in vitro ADME; conditions: male, CD-1, pH 7.4, mouse liver microsomes, five time points over 1 h, read-out: MLM CLint
Experimental: Compounds 1 ([…] DMSO stock solutions) were diluted to 2.5 mM with DMSO and again to 0.5 mM with MeCN to give a final solution containing a 0.5 mM compound in 1:4 DMSO/MeCN. Liver microsomes from male CD-1 mice were sourced from Xenotech (Kansas City, KS, USA). A reaction plate was prepared by adding 691.25 μL and prewarmed (37 °C) microsomal solution (0.63 mg/mL protein and 1.3 mM EDTA in potassium phosphate buffer made by mixing ~250 mL of 100 mM K2HPO4 with ~65mL of KH2PO4 until the buffer reaches a pH of 7.4) to an empty well of a 96-well plate and maintained at 37 °C. […] The stability of the compound was calculated as the percentage of the unchanged parent remaining at T = 30 min relative to the peak area at T = 0 min.
To determine CLint, aliquots of 50 μL were taken from the reaction solution at 0, 15, 30, 45, and 60 min. […] Peak areas were determined from extracted ion chromatograms and the slope value, k, was determined by linear regression of the natural logarithm of the remaining percentage of the parent drug vs. incubation time curve. The intrinsic clearance (CLint in μL/min/mg) was calculated using the relationship CLint = kV/N where V is the incubation volume and N is the amount of protein per well.

## CCC(=O)Nc1cc(Nc2cc(NC3CC3)n3ncc(C#N)c3n2)c(F)cc1N1CCC[C@H](NC)C1 [Compound 2, (S)-N-(5-((3-cyano-7-(cyclopropylamino)pyrazolo[1,5-a]pyrimidin-5-yl)amino)-4-fluoro-2-(3-(methylamino)piperidin-1-yl)phenyl)propionamide]
[1]
  CLint scaled at 5 μM: 0.774 L/h/kg
192 human kinases
  selectivity compared to CSNK2A1 and CSNK2A2: ≥ 1000 fold
CLK2
  IC50: > 30 µM
[2]
  CLint scaled at 5 μM: 2.91 L/h/kg
